# Like-named read-outs stand apart in the source and are kept apart here.
# Key:
# calf thymus DNA [1] = experiment: ethidium displacement assay, calf thymus DNA; format: binding
# From the text: (§1) The ethidium displacement assay is based on the fact that ethidium binding to DNA causes a large (approximately 25 fold) florescence enhancement as a result of the hydrophobic environment surrounding the ethidium molecule. Displacement of ethidium results in decreased fluorescence, and thus binding constants of drugs to DNA can be estimated and compared by measuring the loss of fluorescence as a function of added drug. The drug concentration which produces 50% inhibition of florescence is approximately inversely proportional to the apparent binding constant.
# (§2) The relative DNA binding constants (Kapp) of distamycin and Compounds 6-10 to calf thymus DNA, T4 coliphage DNA, poly(dAdT) and poly(dGdC) were determined using the ethidium displacement assay (Morgan et al., 1979). The Kapp of ethidium bromide (Debart et al., 1989) is included for comparison. 25 μL of a 2A260 DNA solution was added to 2 mL of ethidium bromide buffer (250 μL of 1.3 mM ethidium bromidestock, 314.9 mg Tris-HCl, 60.8 mg Tris base and 930/mg of Na2 EDTA.2H2 O in 250 ml H2 O) pH 7.4 and the maximum fluorescence was measured (excitation wavelength=546 nm, emission wavelength=600 nm) at ambient temperature.
# (§3) DNA solutions of 2A260 were prepared as follows: T4 coliphage DNA: 10 units of DNA were dissolved in 1 mL of 10 mM sodium phosphate (pH 7.1) and 0.25 mM EDTA buffer to give a 10A260 solution. 0.3 mL of the stock solution were diluted to 1.5 mL with 10 mM sodium phosphate (pH 7.1) and 0.25 mM EDTA buffer to give a 2A260 solution. Calf thymus DNA: 100 units of DNA were dissolved in 5 mL of 10 mM sodium phosphate (pH 7.1) and 0.25 mM EDTA buffer to give a 20A260 solution. 1.5 mL of the stock solution were diluted to 15 mL with 10 mM sodium phosphate (pH 7.1) and 0.25 mM EDTA buffer to give a 2A260 solution. Poly(dA-dT) and Poly(dG-dC) DNA: 100 units of DNA were dissolved in 10 mL of 10 mM sodium phosphate pH 7.1) and 0.25 mM EDTA buffer to give a 10A260 solution. 3 mL of the stock solution were diluted to 15 mL with 10 mM sodium phosphate (pH 7.1) and 0.25 mM EDTA buffer to give a 2A260 solution.
# (§4) Aliquots of 10 mM stock drug solution (1 mg of drug to be tested was dissolved with 1 mole equivalent of 0.1M HCl, and then diluted with appropriate volume of distilled water to make a 10 mM solution) were then added to the fluorescing solution and the florescence measured after each addition until a 50% reduction of fluorescence occurred. If the 10 mM stock solution lowered the % fluorescence too quickly, the stock solution was further diluted to 1 mM prior to titration. The apparent binding constant was then calculated from this equation: KEtBr [EtBr]=Kapp [drug], where [drug]=the concentration of drug at a 50% reduction of fluorescence and KEtBr [1×10^7 M^-1 for calf thymus and coliphage T4 DNA^18, 9.5×10^6 M^-1 for poly(dA.dT)^30, and 9.9×10^6 M^-1 for poly(dG.dC)^30 ] and [EtBr] were known. The concentration of ethidium bromide was 1.3 μM. The Kapp values are shown in Table I. In a separate experiment, the Kapp of Compound 5 for calf thymus DNA and poly[dGdC] were determined to be 0.3×10^5 M^-1 and 2.6×10^5 M^-1, respectively. The error in these measurements is ±[…].
# poly(dGdC) [2] = experiment: ethidium displacement assay, poly(dGdC); format: binding
# From the text: as §1, §2, §3, §4
# [3] = system: human chronic myelogenous leukemic K562 cells; experiment: growth inhibition of K562 cells (MTT viability assay); format: cell-based; conditions: for IC50: Homo sapiens, K562, 1 hour drug exposure at 37° C., 5-6 days, MTT; for activity against the growth of K562 cells: in words
# Experimental: The ability of the compounds of the present invention to inhibit the growth of human chronic myelogenous leukemic K562 cells was determined as follows.
# The incubation was terminated by centrifugation (5 minutes, 300 g) and the cells washed once with drug-free medium.
# Following the appropriate drug treatment, the cells were transferred to 96-well microtiter plates, 10^4 cells per well, 8 wells per sample. Plates were then kept in the dark at 37° C. in a humidified atmosphere containing 5% CO2. […] Following incubation of the plates of 5-6 days (to allow control cells to increase in the number by 10 fold) 20 μL of a 5 mg/mL solution of MTT in phosphate buffered saline was added to each well and the plates further incubated for 5 h. The plates were then centrifuged for 5 minutes at 300 g and the bulk of the medium pipetted from the cell pellet leaving 10-20 μL per well. 200 μL DMSO was added to each well and the samples agitated to ensure complete mixing. The optical density was then read at a wavelength of 550 nm on a Titertek Multiscan ELISA plate reader and the dose-response curve constructed.
# calf thymus DNA [4] = experiment: UV-dialysis study (covalent retention on DNA); format: binding; conditions: 24 h incubation at room temperature; 20-26 hours dialysis; pH 7.1
# From the text: The compounds of the present invention are useful as anticancer agents. Although the biological mechanism which results in anticancer activity is not fully understood, the compounds of the subject invention are capable of binding to the minor groove of double-stranded DNA and, unlike distamycin and netropsin, can tolerate GC-containing DNA. Accordingly, the DNA alkylating moiety of the compounds of the present invention can be directed to the minor groove of GC-containing regions of double-stranded DNA. One of ordinary skill in the art can determine the DNA alkylating ability of the compounds of the present invention by art-recognized methods. The formation of an irreversible adduct of DNA and a compound of the present invention is defined herein as a measure of the DNA alkylating ability of the subject compounds. The formation of an irreversible adduct can be determined by art-recognized methods. For example, a solution containing DNA and a compound of the present invention can be exhaustively dialyzed under conditions which allow unbound drug to pass out of the dialysis bag. The percentage of the compound which has been retained in the dialysis bag is considered to be covalently bound to the DNA, and is determined by comparing the UV absorption spectrum of the compound/DNA solution before and after exhaustive dialysis.
# 0.5 mL of 2A260 calf thymus DNA was diluted to 2 mL with 10 mM sodium phosphate and 0.25 mM EDTA buffer, pH 7.1. Four aliquots (3 μL each) of a 1 mM stock drug solution in distilled water were added to the DNA solution and a UV absorption spectrum (300-320) was recorded after each addition. The drug/DNA solution was incubated for 24 h at room temperature and another UV spectrum was recorded. The drug/DNA solution was then transferred into a dialysis bag and the dialysis bag was suspended in 30 mL of 10 mM sodium phosphate and 0.25 mM EDTA buffer, pH, 7.1, at room temperature. After 20-26 hours, the […] spectrum of 2 mL of the buffer outside the dialysis bag was recorded. The absorbance of the drug peak was converted to concentration by the Beer-Lambert equation, and the data was presented as percent initial concentration. Under these conditions, substantial amounts of Compounds 6 (55±5%), 7 (45±5%), 8 (85±5%) and 10 (100±5%) are retained in the dialysis bag, while only 29±5% of a formamido analog^1 is retained.
# T4 coliphage DNA [5] = experiment: ethidium displacement assay, T4 coliphage DNA; format: binding; conditions: ± 0.02 × 10^5 M^-1, pH 7.4
# From the text: as §1
# The apparent binding constants for T4 coliphage DNA are an indicator of the minor groove selectivity of the compounds of the present invention. The major groove of T4 coliphage DNA is blocked by α-glycosylation of the 5-hydroxymethylcytidine residues; therefore, the non-intercalating agents that bind to T4 coliphage DNA must interact in the minor groove [Lown (1982) Acc. Chem. Res., 15, 381].
# as §2, §3, §4
# poly(dAdT) [6] = experiment: ethidium displacement assay, poly(dAdT); format: binding; conditions: ± 0.02 × 10^5 M^-1, pH 7.4
# From the text: as §1, §2, §3, §4
# minor groove of B-DNA = conditions: cited from earlier work
# calf thymus DNA [7] = conditions: literature constant, read-out: KEtBr; cited from earlier work
# T4 coliphage DNA [8] = conditions: literature constant, read-out: KEtBr; cited from earlier work
# poly(dAdT) [9] = conditions: poly(dA.dT); literature constant; read-out: KEtBr (converted); cited from earlier work
# poly(dGdC) [10] = conditions: poly(dG.dC); literature constant; read-out: KEtBr (converted); cited from earlier work
smiles,measurement,setting,value
"CN(C)NC(=O)c1nc(NC(=O)c2nc(NC(=O)c3ccc(N(CCCl)CCCl)cc3)cn2C)cn1C [Compound 5, N-(N',N'-dimethylamino)-1-methyl-4-{4-[4,4-bis(2-chloroethyl)aminobenzamido]-1-methylimidazole-2-carboxamido}imidazole-2-carboxamide]",Kd,"calf thymus DNA [1]; separate experiment, read-out: Kapp (converted)",33.3 µM
same,Kd,"poly(dGdC) [2]; poly[dGdC], separate experiment, read-out: Kapp (converted)",3.85 µM
"CN(C)CCNC(=O)c1nc(NC(=O)c2nc(NC(=O)CCl)cn2C)cn1C [Compound 11, N-(N',N'-dimethylaminoethyl)-1-methyl-4-[4-(chloroacetamido)-1-methylimidazole-2-carboxamido)imidazole-2-carboxamide]",IC50,[3],350 µM
"CN(C)CCNC(=O)c1nc(NC(=O)c2nc(NC(=O)CBr)cn2C)cn1C [Compound 12, N-(N',N'-dimethylaminoethyl)-1-methyl-4-[4-(bromoacetamido)-1-methylimidazole-2-carboxamido]imidazole-2-carboxamide]",IC50,[3],400 µM
CN(C)NC(=O)c1nc(NC(=O)c2nc(NC=O)cn2C)cn1C [Compound 13],IC50,[3],> 500 µM
same,activity against the growth of K562 cells,[3],no activity
CN(C)CCNC(=O)c1nc(NC(=O)c2nc(NC=O)cn2C)cn1C [Compound 14],IC50,[3],> 500 µM
same,activity against the growth of K562 cells,[3],no activity
"CN(C)CCNC(=O)c1nc(NC(=O)c2nc(NC(=O)c3nc(NC=O)cn3C)cn2C)cn1C [Compound 15, N-(N',N'-dimethylaminoethyl)-1-methyl-4-{1-methyl-4-[4-formamido-2-methylimidazole-2-carboxamido]imidazole-2-carboxamido}imidazole-2-carboxamide]",retained in the dialysis bag (percent initial concentration),calf thymus DNA [4],29±5%
same,IC50,[3],> 500 µM
same,activity against the growth of K562 cells,[3],no activity
"Cn1cc(NC(=O)c2cc(NC(=O)c3cc(NC=O)cn3C)cn2C)cc1C(=O)NCCC(=N)N [Distamycin, distamycin]",Association constant Kapp,"calf thymus DNA [1]; ± 0.02 × 10^5 M^-1, pH 7.4",774000 M⁻¹
same,Association constant Kapp,T4 coliphage DNA [5],640000 M⁻¹
same,Association constant Kapp,poly(dAdT) [6],3.48e+07 M⁻¹
same,Association constant Kapp,"poly(dGdC) [2]; poly(dGdC), ± 0.02 × 10^5 M^-1, pH 7.4",203000 M⁻¹
same,specific nucleotide sequence bound / preferred,minor groove of B-DNA,(AT)5
"CC[n+]1c(-c2ccccc2)c2cc(N)ccc2c2ccc(N)cc21 [EtBr, ethidium bromide]",Kd,calf thymus DNA [7],0.1 µM
same,Kd,T4 coliphage DNA [8],0.1 µM
same,Kd,poly(dAdT) [9],0.105 µM
same,Kd,poly(dGdC) [10],0.101 µM
"Cn1cc(NC(=O)c2cc(NC(=O)CN=C(N)N)cn2C)cc1C(=O)NCCC(=N)N [Netropsin, netropsin]",specific nucleotide sequence bound / preferred,minor groove of B-DNA,(AT)4

# Reference: patent publication US5273991A, “Imidazole-containing compositions and methods of use thereof analogs of distamycin” (Research Corporation Technologies, Inc., priority 1992, dated 1993)
